Biological target: T1, human RXFP1 (Homo sapiens, UniProt Q9HBX9)
T1 construct: expressed in transfected cells
T1 sequence (Q9HBX9 1-757): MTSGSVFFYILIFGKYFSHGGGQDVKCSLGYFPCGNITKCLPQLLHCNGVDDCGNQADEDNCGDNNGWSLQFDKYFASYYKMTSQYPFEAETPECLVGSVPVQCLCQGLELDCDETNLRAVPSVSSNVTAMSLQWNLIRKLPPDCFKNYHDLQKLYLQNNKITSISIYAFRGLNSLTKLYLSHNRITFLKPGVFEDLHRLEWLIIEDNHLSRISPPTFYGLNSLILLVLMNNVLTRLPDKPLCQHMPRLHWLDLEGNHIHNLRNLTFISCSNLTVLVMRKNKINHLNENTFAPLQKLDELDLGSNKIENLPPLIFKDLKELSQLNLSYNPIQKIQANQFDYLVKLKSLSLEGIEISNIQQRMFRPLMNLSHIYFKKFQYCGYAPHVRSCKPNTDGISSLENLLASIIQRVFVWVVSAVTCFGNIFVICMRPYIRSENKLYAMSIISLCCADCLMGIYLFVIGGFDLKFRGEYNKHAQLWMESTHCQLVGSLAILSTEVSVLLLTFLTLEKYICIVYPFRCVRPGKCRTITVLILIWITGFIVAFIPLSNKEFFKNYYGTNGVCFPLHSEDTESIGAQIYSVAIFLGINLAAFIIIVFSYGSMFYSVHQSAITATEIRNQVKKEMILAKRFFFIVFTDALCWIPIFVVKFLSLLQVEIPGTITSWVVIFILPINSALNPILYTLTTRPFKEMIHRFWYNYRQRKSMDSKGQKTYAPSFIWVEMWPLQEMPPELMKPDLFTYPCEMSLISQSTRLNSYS
Test: hRXFP1 HEK293 cAMP assay (HTRF)
Assay type: cell-based
Conditions: HEK293 cells stably expressing human RXFP1, 30 min at room temperature
Outline: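 In a stable human RXFP1 HEK293 line, compounds acted for 30 min at RT in buffer with 0.5 mM IBMX. HTRF then quantified cellular cAMP.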

| EC50 [µM] | SMILES |
| --- | --- |
| 2.81 | COc1ccc(CCCNC2CCC2)cc1C(=O)N[C@@H]1C2CCC(/C2=C/C(F)(F)F)[C@@H]1C(=O)Nc1ccc(F)c(C(F)(F)F)c1 (stereo partly drawn) [Example 122, (2S,3R,7Z)-3-{5-[3-(cyclobutylamino)pro-pyl]-2-methoxybenzamido}-N-[4-fluoro-3-(trifluoromethyl)phe-nyl]-7-(2,2,2-trifluoroethylidene)bi-cyclo[2.2.1]heptane-2-carboxamide] |
| 1.27 | COc1ccc(CCCn2cc(-c3ccccc3)nn2)cc1C(=O)N[C@@H]1C2CCC(/C2=C/C(F)(F)F)[C@@H]1C(=O)Nc1ccc(F)c(C(F)(F)F)c1 (some centres unmarked) [Example 123] |
| 0.013 | COc1ccc(/C=C/C(=O)N2CCC(O)CC2)cc1C(=O)N[C@@H]1C2CCC(/C2=C/C(F)(F)F)[C@@H]1C(=O)Nc1ccc(F)c(C(F)(F)F)c1 (stereo partly drawn) [Example 125, (2S,3R,7Z)-N-[4-fluoro-3-(trifluoromethyl)phe-nyl]-3-{5-[(1E)-3-(4-hydroxypiperidin-1-yl)-3-oxoprop-1-en-1-yl]-2-methoxybenzamido}-7-(2,2,2-trifluoroethylidene)bi-cyclo[2.2.1]heptane-2-carboxamide] |
| 0.035 | COc1ccc(/C=C/C(=O)N(C)CCO)cc1C(=O)N[C@@H]1C2CCC(/C2=C/C(F)(F)F)[C@@H]1C(=O)Nc1ccc(F)c(C(F)(F)F)c1 (stereo partly drawn) [Example 126, (2S,3R,7Z)-N-[4-fluoro-3-(trifluoromethyl)phe-nyl]-3-{5-[(1E)-2-[(2-hydroxyethyl)(meth-yl)carbamoyl]eth-1-en-1-yl]-2-methoxybenzamido}-7-(2,2,2-trifluoroethylidene)bi-cyclo[2.2.1]heptane-2-carboxamide] |
| 0.074 | COc1ccc(/C=C/C(=O)N[C@H]2C[C@H](O)C2)cc1C(=O)N[C@@H]1C2CCC(/C2=C/C2CC2)[C@@H]1C(=O)Nc1ccc(F)c(C(F)(F)F)c1 (stereo partly drawn) [Example 127, (2S,3R,7Z)-7-(cyclopropylmethyli-dene)-N-[4-fluoro-3-(trifluoromethyl)phe-nyl]-3-{2-methoxy-5-[(1E)-2-{[(1r,3r)-3-hydroxycyclobutyl]carbamoyl}eth-1-en-1-yl]benzamido}bicyclo [2.2.1]heptane-2-carboxamide] |
| 0.096 | COc1ccc(/C=C/C(=O)N[C@H]2C[C@@H](O)C2)cc1C(=O)N[C@@H]1C2CCC(/C2=C/C2CC2)[C@@H]1C(=O)Nc1ccc(F)c(C(F)(F)F)c1 (stereo partly drawn) [Example 128, (2S,3R,7Z)-7-(cyclopropylmethyli-dene)-N-[4-fluoro-3-(trifluoromethyl)phe-nyl]-3-{2-methoxy-5-[(1E)-2-{[(1s,3s)-3-hydroxycyclobutyl]carbamoyl}eth-1-en-1-yl]benzamido}bicyclo [2.2.1]heptane-2-carboxamide] |
| 0.111 | COc1ccc(/C=C/C(=O)N2CC[C@@H](O)C2)cc1C(=O)N[C@@H]1C2CCC(/C2=C/C(F)(F)F)[C@@H]1C(=O)Nc1ccc(F)c(C(F)(F)F)c1 (stereo partly drawn) [Example 129, (2S,3R,7Z)-N-[4-fluoro-3-(trifluoromethyl)phe-nyl]-3-{5-[(1E)-3-[(3R)-3-hydroxypyrrolidin-1-yl]-3-oxoprop-1-en-1-yl]-2-methoxybenzamido}-7-(2,2,2-trifluoroethylidene)bi-cyclo[2.2.1]heptane-2-carboxamide] |
| 0.114 | COc1ccc(/C=C/C(=O)N2CC[C@H](O)C2)cc1C(=O)N[C@@H]1C2CCC(/C2=C/C(F)(F)F)[C@@H]1C(=O)Nc1ccc(F)c(C(F)(F)F)c1 (stereo partly drawn) [Example 130, (2S,3R,7Z)-N-[4-fluoro-3-(trifluoromethyl)phe-nyl]-3-{5-[(1E)-3-[(3S)-3-hydroxypyrrolidin-1-yl]-3-oxoprop-1-en-1-yl]-2-methoxybenzamido}-7-(2,2,2-trifluoroethylidene)bi-cyclo[2.2.1]heptane-2-carboxamide] |
